Data as given in patent publication US7408048B2, “Mammalian grainyhead transcription factors” (Melbourne Health, priority 2002, dated 2008).
Marks after values point to notes of the source that are not given here.

Legend:
[1] = system: GRHL-3^−/− mice; assay type: in vivo, mouse; settings: for Observed NTDs: GRHL-3^−/− embryos from GRHL-3^+/− intercrosses, given to pregnant females, embryos harvested E14.5; for Predicted NTDs: predicted from the response of ct/ct embryos; for Mean litter size / frequency of resorptions: mouse, in vivo
Experimental: GRHL-3^+/− mice were inter-crossed and folate, inositol or PBS placebo was administered to pregnant females as previously described. Embryos were harvested on E14.5 and genotyped and examined morphologically. […] The results were analysed statistically by the one-sided binomial probability test. NTDs in the curly tail mice are resistant to folate administered in early gestation. […] The effects of folate and inositol administration on pregnant GRHL-3^+/− mice previously mated with GRHL-3^+/− males was examined (Table 6). As expected, no rescue of spina bifida in GRHL-3^−/− embryos with placebo or folate treatment was observed. […] Although the numbers of embryos examined was small, the result was highly significant (p<0.001) given the 70% reduction in the incidence of spina bifida in inositol-treated ct/ct embryos. These findings indicate that GRHL-3 expression is essential for inositol-mediated rescue of folate-resistant NTDs.

[2] = system: curly tail (ct/ct) mice; settings: cited from earlier work
[3] = system: five concatamerized GAL4 DNA binding sites upstream of the CAT gene in 293T cell line; experiment: GAL4 DNA binding domain fusion / CAT reporter co-transfection; assay type: cell-based; settings: fused to GAL4 DNA binding domain, human 293T cell line
Excerpt: Although significant sequence homology exists between grh and the shorter mgr isoforms and p70 mgr, the isoleucine rich transcriptional activation domain identified in the fly protein is not conserved. […] In view of the high degree of conservation of the first three coding exons of p70 mgr and bom, it was postulated that this could be the functional domain responsible for activation. To address this, the cDNA fragment encoding the first 93 amino acids of human p70 MGR (encoded by the first three exons) was subcloned in frame with the GAL4 DNA binding domain in a mammalian expression vector. […] These plasmids were co-transfected into the human 293T cell line with a reporter plasmid containing five concatamerized GAL4 DNA binding sites upstream of the chloramphenicol acetyltransferase (CAT) gene. The vector containing only the GAL4 DNA-BD or containing the VP16 activation domain fused to the GAL DNA-BD served as the negative and positive controls, respectively.

[4] = system: human En-1 promoter; experiment: En-1 promoter / luciferase reporter transfection in COS cells; assay type: cell-based; settings: p70 MGR expression vector vs empty vector, MGR null cell line COS
Excerpt: (§1) FIG. 3 are representations showing that p70 MGR binds to and transactivates the human En-1promoter. (A) Identifcation of a grh consensus DNA binding site in the human En-1promoter. The consensus sequence for grh DNA binding (SEQ ID NO: 50) compiled from an alignment of the Drosophila Ultrabithorax, Dopa decarboxylase and fushi tarazu promoters was compared with the sequence of the proximal human En-1 promoter (SEQ ID NO: 49) and the Drosophilaengrailed promoter (SEQ ID NO: 48). The closed bracket indicates the extend of the grainyhead binding site in the engrailed promoter as defined by DNAseI footprinting. (B) Human p70 MGR binds 5 to the human En-1 promoter. Nuclear extract from the JEG-3 cell line was studied in an EMSA with a Ddc promoter probe in the presence of pre-immune sera (lane 1), anti-MGR specific antisera (detailed in legend to FIG. 2) (lane 2) or cold competitor DNA (lanes 3-5). A 50-fold excess of the Ddc probe was used in lane 3 and a 10- and 20-fold excess of a human En-1promoter probe in lanes 4 and 5, respectively. The migration of the MGR/DNA complex is shown by arrows. (C) Human p70 MGR transactivates the En-1promoter. […]

[5] = system: Drosophila PCNA promoter; experiment: EMSA with JEG-3 nuclear extract, PCNA promoter probe; assay type: binding; settings: anti-MGR antisera
Excerpt: (§2) FIG. 2 is a photographic representation showing that p70 MGR binds to Drosophila gene regulatory sequences which bind grh. (A) p70 MGR binds to the Drosophila PCNA promoter. Nuclear extract from the JEG-3 cell line was studied in an EMSA with a PCNA promoter probe in the presence and absence of anti-MGR specific antisera. Antisera 611 was raised against peptides common to the p70 and p49 MGR proteins in the dimerization domain and antisera 67 was raised against unique peptides in the NH2-terminal domain of p70 MGR. The migration of the MGR complex is shown in arrows. (B) p70 MGR binds to the Drosophila dopo decarboxylase promoter. Experimental conditions were as described for (A).
(§3) To determine the extent of the functional homology between GRH and MGR, it was initially examined whether the mammalian protein could bind to the well-characterized binding sites for the Drosophila factor in the Dopa decarboxylase and PCNA gene regulatory regions (Uv et al., Mol. Cell. Biol. 17: 6727-6735, 1997; Hayashi et al., J. Biol. Chem. 274: 35080-35088, 1999). Oligonucleotide probes encompassing these sites were incubated with nuclear extract from the human placental cell line JEG-3, which expresses both isoforms of MGR at RNA and protein level and analyzed in an electrophoretic mobility shift assay (EMSA). […]

[6] = system: Drosophila dopa decarboxylase promoter; experiment: EMSA with JEG-3 nuclear extract, Dopa decarboxylase promoter probe; assay type: binding; settings: anti-MGR antisera
Excerpt: as §2, §3

[7] = system: human En-1 promoter; experiment: EMSA competition with JEG-3 nuclear extract, En-1 promoter probe; assay type: binding; settings: cold En-1 probe competing with Ddc probe
Excerpt: as §1

## Nc1nc2ncc(CNc3ccc(C(=O)N[C@@H](CCC(=O)O)C(=O)O)cc3)nc2c(=O)[nH]1 [Folate, folate]
[1]
  Observed NTDs: 100%
  Mean litter size: did not differ significantly
  frequency of resorptions: did not differ significantly
[1]; GRHL-3^−/− embryos
  Predicted NTDs: 100%

## O[C@H]1[C@H](O)[C@@H](O)[C@H](O)[C@@H](O)[C@H]1O [Inositol, inositol]
[1]
  Observed NTDs: 100%*
  Mean litter size: did not differ significantly
  frequency of resorptions: did not differ significantly
[1]; GRHL-3^−/− embryos, treatment of pregnant GRHL-3^+/− mice
  rescue of spina bifida (incidence, severity): neither the incidence, nor severity of the spina bifida in the GRHL-3^−/− embryos was alleviated
[1]; GRHL-3^−/− embryos
  Predicted NTDs: 30%
[2]; curly tail mice, administered in early gestation / pregnancy
  effect on NTDs / incidence of spina bifida: marked reduction
[2]; inositol-treated ct/ct embryos
  reduction in the incidence of spina bifida: 70%

## VP16
[3]
  transcriptional activation of the CAT gene: transcriptional activation of the CAT gene was observed

## p70 MGR: human mammalian Grainyhead isoform p70, SEQ ID NO:4; first 93 amino acids fused to GAL4 DNA binding domain in b240
[3]
  transcriptional activation of the CAT gene: transcriptional activation of the CAT gene was observed
[4]
  transcriptional activity of the En-1 promoter: dramatically enhanced
[5]
  binding to PCNA promoter probe: binds
[6]
  binding to dopa decarboxylase promoter probe: binds
[7]
  binding to En-1 promoter: binds

B1: bom: brother of mammalian grainyhead; region comparable to first 93 amino acids of p70 MGR fused to GAL4 DNA binding domain (protein)
chain: MSQESDNNKRLVALVPMPSDPPFNTRRAYTSEDEAWKSYLENPLTAATKAMMSINGDEDSAAALGLLYDYYKVPRDKRLLSVSKASDSQEDQEKRNCLGTSEAQSNLSGGENRVQVLKTVPVNLSLNQDHLENSKREQYSISFPESSAIIPVSGITVVKAEDFTPVFMAPPVHYPRGDGEEQRVVIFEQTQYDVPSLATHSAYLKDDQRSTPDSTYSESFKDAATEKFRSASVGAEEYMYDQTSSGTFQYTLEATKSLRQKQGEGPMTYLNKGQFYAITLSETGDNKCFRHPISKVRSVVMVVFSEDKNRDEQLKYWKYWHSRQHTAKQRVLDIADYKESFNTIGNIEEIAYNAVSFTWDVNEEAKIFITVNCLSTDFSSQKGVKGLPLMIQIDTYSYNNRSNKPIHRAYCQIKVFCDKGAERKIRDEERKQNRKKGKGQASQTQCNSSSDGKLAAIPLQKKSDITYFKTMPDLHSQPVLFIPDVHFANLQRTGQVYYNTDDEREGGSVLVKRMFRPMEEEFGPVPSKQMKEEGTKRVLLYVRKETDDVFDALMLKSPTVKGLMEAISEKYGLPVEKIAKLYKKSKKGILVNMDDNIIEHYSNEDTFILNMESMVEGFKVTLMEI
modifications: human
[3]
  transcriptional activation of the CAT gene: transcriptional activation of the CAT gene was observed

B2: p49 mgr: human mammalian Grainyhead isoform p49, SEQ ID NO:2; full length fused to GAL4 DNA binding domain (protein)
chain: MASLWESPQQCIILSPLSGWWFSIGISILTSSALVLKPQMLKGELQTRPSQRPSRKAFRRNNFEYTLEASKSLRQKPGDSTMTYLNKGQFYPITLKEVSSSEGIHHPISKVRSVIMVVFAEDKSREDQLRHWKYWHSRQHTAKQRCIDIADYKESFNTISNIEEIAYNAISFTWDINDEAKVFISVNCLSTDFSSQKGVKGLPLNIQVDTYSYNNRSNKPVHRAYCQIKVFCDKGAERKIRDEERKQSKRKVSDVKVPLLPSHKRMDITVFKPFIDLDTQPVLFIPDVHFANLQRGTHVLPIASEELEGEGSVLKRGPYGTEDDFAVPPSTKLARIEEPKRVLLYVRKESEEVFDALMLKTPSLKGLMEAISDKYDVPHDKIGKIFKKCKKGILVNMDDNIVKHYSNEDT
modifications: GAL4 DNA-binding domain fusion; human
[3]
  transcriptional activation of the CAT gene: No activation was observed
